# In US7759346B2, “[[2-(amino-3,4-dioxo-1-cyclobuten-1-yl)amino]alkyl]-acid derivatives for the treatment of pain” (priority 2001, dated 2010):
# Where two headings read alike, the source gives them in different places.
# Columns and labels:
# Spraque-Dawley rats [1] = experiment: Chronic Constriction Injury-induced tactile hypersensitivity (von Frey); assay type: in vivo, rat; conditions: for % Reversal of CCl-induced tactile hypersensitivity: IP, one week after CCl surgery; for reversal of CCl-induced tactile hypersensitivity (in words): up to doses that produced observable signs of sedation and ataxia
# Excerpt: Rats were anesthetized with 3.5% halothane in O2 at 1 L/min and maintained with 1.5% halothane in O2 during surgery. A modified chronic sciatic nerve constriction injury (Mosconi & Kruger, 1996; Bennett & Xie, 1988) was produced by a cutaneous incision and a blunt dissection through the biceps femoris to expose the sciatic nerve. A PE 90 Polyethylene tubing (Intramedic, Clay Adams; Becton Dickinson Co.) cuff (2 mm length) was placed around the sciatic nerve at the level of the mid-thigh. The wound was closed in layers using 4-0 silk suture and wound clips. Testing was conducted 6-10 days after surgery.
# Animals were placed in elevated wire cages and allowed 45-60 minutes to acclimate to the testing room. Baseline tactile sensitivity was assessed using a series of calibrated von Frey monofilaments (Stoelting; Wood Dale, Ill.) 0-3 days before surgery. Von Frey monofilaments were applied to the mid-plantar hind paw in sequential ascending or descending order, as necessary, to hover as closely as possible to the threshold of responses. The threshold was indicated by the lowest force that evoked a brisk withdrawal response to the stimuli. Thus, a withdrawal response led to the presentation of the next lighter stimulus and the lack of a withdrawal response led to the presentation of the next stronger stimulus. Rats with baseline thresholds <10 g force were excluded from the study. […] Under cumulative dosing conditions, compounds were administered IP every 30 minutes with the cumulative dose increasing in ½ log unit increments. Tactile hypersensitivity was assessed 20-30 minutes following each drug administration.
# Test Method 2 Data Analysis—The 50% threshold values (in gm force) estimated by the Dixon non-parametric test (Chaplan et al, 1994) was calculated and fifteen-grams of force was used as the maximal force. Dose-effect curves were generated for each experimental condition for each rat. Individual tactile hypersensitivity threshold values were averaged to provide a mean (±1 SEM). Reversal of tactile hypersensitivity was defined as a return to baseline tactile sensitivity and was calculated according to the following equation:
# (§1) [formula] in which 50%^drug+CCl is the 50% value after compound in animals approximately one week after CCl surgery, 50%^CCl is the 50% value approximately one week after CCl surgery alone, and 50%^baseline is the 50% value before CCl surgery. Maximal effect of 100% reversal represents a return to the mean pre-operative threshold value for subjects in that experimental condition. Test Method 3: Scheduled-Controlled Responding.
# Spraque-Dawley rats [2] = experiment: Observable signs of sedation and ataxia
# [3] = system: cingulate and retrosplenial cortices of mice and rats; conditions: cited from earlier work
# Spraque-Dawley rats [4] = experiment: Prostaglandin E2-induced thermal hypersensitivity, warm-water tail withdrawal, single compound studies; assay type: in vivo, rat; conditions: for % MPE (reversal of PGE2-induced thermal hypersensitivity): given 30 min before PGE2
# Description: Ketamine and dizocilpine are high affinity use-dependent NMDA receptor channel blockers, while memantine is a moderate affinity use-dependent NMDA receptor channel blocker. CGS-19755 is a competitive NMDA antagonist and ifenprodil is a […] polyamine antagonist. Test Method 1: Prostaglandin E2-Induced Thermal Hypersensitivity.
# (§2) The terminal 10 cm of the tail was placed into a thermos bottle containing water warmed to 38, 42, 46, 50, 54, or 58° C. The latency in seconds for the animal to remove the tail from the water was used as a measure of nociception.
# (§3) Following the assessment of baseline thermal sensitivity, thermal hypersensitivity was produced by a 50 μL injection of 0.1 mg prostaglandin E2 (PGE2) into the terminal 1 cm of the tail. Temperature-effect curves were generated before (baseline) and after (15, 30, 60, 90 and 120 min) the PGE2 injection.
# Single compound studies. The ability of drugs to reverse PGE2-induced thermal hypersensitivity was assessed using a single dose time-course procedure. Under this procedure, a single dose of the compound to be tested was administered intraperitoneally (IP), orally (PO) or intranasally (IN) 30 min before the injection of PGE2. […] sensitivity was assessed 30 min after PGE2 injection.
# (§4) Test Method 1 Data Analysis—The temperature that produced a half-maximal increase in the tail-withdrawal latency (i.e., T10) was calculated from each temperature-effect curve. The T10 was determined by interpolation from a line drawn between the point above and the point below 10 sec on the temperature-effect curve. For these studies, thermal hypersensitivity was defined as a leftward shift in the temperature-effect curve and a decrease in the T10 value. Reversal of thermal hypersensitivity was defined as a return to baseline of the temperature-effect curve and the T10 value and was calculated according to the following equation:
# [formula] in which T10^drug+PGE2 is the T10 after a drug in combination with PGE2, T10^PGE2 is the T10 after PGE2 alone, and T10^baseline is the T10 under control conditions. A % MPE value of 100 indicates a complete return to the baseline thermal sensitivity observed without the PGE2 injection. […] Test Method 2: Chronic Constriction Injury
# Spraque-Dawley rats [5] = assay type: in vivo, rat
# Description: as §2, §3
# Compounds were administered IP at the same time as PGE2, which was administered 30 min before testing.
# as §4, with “equation: […]” for “equation:”
# Spraque-Dawley rats [6] = experiment: Warm-water tail withdrawal combination studies with morphine; assay type: in vivo, rat; conditions: 30 min before testing
# Description: as §2
# Combination compound studies. […] Compounds were administered IP at the same time 30 min before testing.
# as §4, with “equation: […]” for “equation:”
# [7] = system: rats trained to discriminate between saline and PCP; conditions: cited from earlier work
# Spraque-Dawley rats [8] = experiment: Scheduled-controlled responding (operant responding, food presentation); conditions: for Operant responding: response rate as a percent of control: IP; for rates of responding (in words): schedule of food presentation, Compound A IP or PO at doses that reversed hypersensitivity
# Excerpt: as §1
# Rats were trained under a multiple-cycle procedure during experimental sessions conducted five days each week. Each training cycle consisted of a 1-min pretreatment period followed by a 10-min response period. During the pretreatment period, stimulus lights were not illuminated, and responding had no scheduled consequences. During the response period, the left or right stimulus lights were illuminated (counterbalanced among subjects), the response lever was extended and subjects could respond under a fixed ratio 30 schedule of food presentation. Training sessions consisted of 3 consecutive cycles. Testing sessions were identical to training sessions except that a single dose of drug was administered at the start of the first cycle.
# Data analysis. Operant response rates from individual animals were averaged for the three cycles during test sessions and were converted to percent of control response rates using the average rate from the previous training day as the control value (i.e., average of three cycles). Data are presented as the mean (±1 SEM) response rate as a percent of control.
# monkeys = conditions: cited from earlier work
# [9] = IP, CCl-induced tactile hypersensitivity study
# [10] = IP, PGE2-induced thermal hypersensitivity study
structure (smiles),measurement,setting,value
"O=C(O)[C@H]1C[C@@H](CP(=O)(O)O)CCN1 (relative stereo) [CGS-19755, cis-4-phosphonomethyl-2-piperidine carboxylic acid]",% Reversal of CCl-induced tactile hypersensitivity,Spraque-Dawley rats [1]; cumulative dose 3 mg/kg,−9%
same,% Reversal of CCl-induced tactile hypersensitivity,Spraque-Dawley rats [1]; cumulative dose 10 mg/kg,−5%
same,% Reversal of CCl-induced tactile hypersensitivity,Spraque-Dawley rats [1]; cumulative dose 30 mg/kg,−17%
same,reversal of CCl-induced tactile hypersensitivity (in words),Spraque-Dawley rats [1],none of the comparative compounds produced any reversal
same,doses that produced observable signs of sedation and ataxia,Spraque-Dawley rats [2]; [9],< 30 mg/kg
same,vacuolization (in words),[3]; cingulate and retrosplenial cortices of mice and rats,caused vacuolization at behaviorally effective doses
same,effectiveness/vacuolization ratio,"[3]; mice and rats, behaviorly effective doses",1
same,% MPE (reversal of PGE2-induced thermal hypersensitivity),"Spraque-Dawley rats [4]; IP, 3 mg/kg",9%
same,% MPE (reversal of PGE2-induced thermal hypersensitivity),"Spraque-Dawley rats [4]; IP, 10 mg/kg",25%
same,% MPE (reversal of PGE2-induced thermal hypersensitivity),"Spraque-Dawley rats [4]; IP, 30 mg/kg",9%
"O=c1c2c(c1=O)N(Cc1nnn[nH]1)CCCN2 [Compound B, 2-[(1H-Tetrazol-5-yl)methyl]-2,6-diazabicyclo[5.2.0]-non-1-(7)-ene-8,9-dione]",% Reversal of CCl-induced tactile hypersensitivity,Spraque-Dawley rats [1]; cumulative dose 1 mg/kg,13%
same,% Reversal of CCl-induced tactile hypersensitivity,Spraque-Dawley rats [1]; cumulative dose 3 mg/kg,14%
same,% Reversal of CCl-induced tactile hypersensitivity,"Spraque-Dawley rats [1]; cumulative dose 10 mg/kg, 10 mg/kg",40%
same,% Reversal of CCl-induced tactile hypersensitivity,Spraque-Dawley rats [1]; cumulative dose 30 mg/kg,12%
same,sedation or ataxia,"Spraque-Dawley rats [2]; doses used in the CCl-induced tactile hypersensitivity study, IP",not associated with sedation or ataxia
same,% MPE (reversal of PGE2-induced thermal hypersensitivity),"Spraque-Dawley rats [4]; PO, 3 mg/kg",16%
same,% MPE (reversal of PGE2-induced thermal hypersensitivity),"Spraque-Dawley rats [4]; PO, 10 mg/kg",92%
same,% MPE (reversal of PGE2-induced thermal hypersensitivity),"Spraque-Dawley rats [4]; PO, 30 mg/kg",101%
same,reversal of PGE2-induced thermal hypersensitivity (in words),"Spraque-Dawley rats [4]; rat, in vivo",full reversal
"CN1CC[C@]23c4c5ccc(O)c4O[C@H]2[C@@H](O)C=C[C@H]3[C@H]1C5 [Morphine, morphine]",Change from Baseline (T10),"Spraque-Dawley rats [5]; rat, in vivo",+0.3
same,Change from Baseline (T10),Spraque-Dawley rats [6]; morphine 5.6 mg/kg IP,+2.3
C[C@]12N[C@H](Cc3ccccc31)c1ccccc12 [dizocilpine],doses that produced observable signs of sedation and ataxia,Spraque-Dawley rats [2]; [10],< 0.3 mg/kg
same,substitution for the PCP-like discriminative stimulus effects,[7],substitute for the PCP-like discriminative stimulus effects
same,% MPE (reversal of PGE2-induced thermal hypersensitivity),"Spraque-Dawley rats [4]; IP, 0.3 mg/kg",18%
same,Operant responding: response rate as a percent of control,Spraque-Dawley rats [8]; 0.1 mg/kg,63%
same,Operant responding: response rate as a percent of control,Spraque-Dawley rats [8]; 0.3 mg/kg,16%
same,rates of responding (in words),Spraque-Dawley rats [8],dose-dependently decreased rates of responding
"CC(C(O)c1ccc(O)cc1)N1CCC(Cc2ccccc2)CC1 (centres unmarked) [ifenfrodil, ifenprodil]",% MPE (reversal of PGE2-induced thermal hypersensitivity),"Spraque-Dawley rats [4]; IP, 10 mg/kg",1%
same,% MPE (reversal of PGE2-induced thermal hypersensitivity),"Spraque-Dawley rats [4]; IP, 30 mg/kg",14%
CNC1(c2ccccc2Cl)CCCCC1=O (centres unmarked) [ketamine],Change from Baseline (T10),"Spraque-Dawley rats [5]; 18.0 mg/kg IP with PGE2, PGE2 + vehicle −5.6",−5.5
same,substitution for the PCP-like discriminative stimulus effects,[7],substitute for the PCP-like discriminative stimulus effects
same,% MPE (reversal of PGE2-induced thermal hypersensitivity),"Spraque-Dawley rats [4]; IP, 10 mg/kg",14%
same,% MPE (reversal of PGE2-induced thermal hypersensitivity),"Spraque-Dawley rats [4]; IP, 18 mg/kg",9%
same,Change from Baseline (T10),Spraque-Dawley rats [6]; 18.0 mg/kg IP,−0.3
CC12CC3CC(C)(C1)CC(N)(C3)C2 [memantine],% Reversal of CCl-induced tactile hypersensitivity,Spraque-Dawley rats [1]; cumulative dose 3 mg/kg,−25%
same,% Reversal of CCl-induced tactile hypersensitivity,Spraque-Dawley rats [1]; cumulative dose 10 mg/kg,−45%
same,reversal of CCl-induced tactile hypersensitivity (in words),Spraque-Dawley rats [1],none of the comparative compounds produced any reversal
same,doses that produced observable signs of sedation and ataxia,Spraque-Dawley rats [2]; [9],< 10 mg/kg
same,doses that produced observable signs of sedation and ataxia,Spraque-Dawley rats [2]; [10],< 10 mg/kg
same,doses that produced observable signs of sedation and ataxia,"Spraque-Dawley rats [2]; PO, PGE2-induced thermal hypersensitivity study",< 100 mg/kg
same,substitution for the PCP-like discriminative stimulus effects,[7],substitute for the PCP-like discriminative stimulus effects
same,% MPE (reversal of PGE2-induced thermal hypersensitivity),"Spraque-Dawley rats [4]; IP, 3 mg/kg",13%
same,% MPE (reversal of PGE2-induced thermal hypersensitivity),"Spraque-Dawley rats [4]; IP, 10 mg/kg",15%
same,% MPE (reversal of PGE2-induced thermal hypersensitivity),"Spraque-Dawley rats [4]; PO, 10 mg/kg",−1%
same,% MPE (reversal of PGE2-induced thermal hypersensitivity),"Spraque-Dawley rats [4]; PO, 30 mg/kg",11%
same,% MPE (reversal of PGE2-induced thermal hypersensitivity),"Spraque-Dawley rats [4]; PO, 100 mg/kg",5%
same,Operant responding: response rate as a percent of control,Spraque-Dawley rats [8]; 3 mg/kg,93%
same,Operant responding: response rate as a percent of control,Spraque-Dawley rats [8]; 10 mg/kg,2%
same,rates of responding (in words),Spraque-Dawley rats [8],dose-dependently decreased rates of responding
same,self-administration,monkeys,maintains self-administration
